# Reference: publication PMC12651750 (Cells, 2025)
# Read-outs that look alike come from different tables or passages of the source.
# Legend:
# HDAC6 = molecular target: T1, HDAC6 (Homo sapiens, UniProt Q9UBN7); experiment: In vitro HDAC enzymatic inhibition assay (HDAC kit, fluorescence)
# T1 sequence (Q9UBN7 1-1215): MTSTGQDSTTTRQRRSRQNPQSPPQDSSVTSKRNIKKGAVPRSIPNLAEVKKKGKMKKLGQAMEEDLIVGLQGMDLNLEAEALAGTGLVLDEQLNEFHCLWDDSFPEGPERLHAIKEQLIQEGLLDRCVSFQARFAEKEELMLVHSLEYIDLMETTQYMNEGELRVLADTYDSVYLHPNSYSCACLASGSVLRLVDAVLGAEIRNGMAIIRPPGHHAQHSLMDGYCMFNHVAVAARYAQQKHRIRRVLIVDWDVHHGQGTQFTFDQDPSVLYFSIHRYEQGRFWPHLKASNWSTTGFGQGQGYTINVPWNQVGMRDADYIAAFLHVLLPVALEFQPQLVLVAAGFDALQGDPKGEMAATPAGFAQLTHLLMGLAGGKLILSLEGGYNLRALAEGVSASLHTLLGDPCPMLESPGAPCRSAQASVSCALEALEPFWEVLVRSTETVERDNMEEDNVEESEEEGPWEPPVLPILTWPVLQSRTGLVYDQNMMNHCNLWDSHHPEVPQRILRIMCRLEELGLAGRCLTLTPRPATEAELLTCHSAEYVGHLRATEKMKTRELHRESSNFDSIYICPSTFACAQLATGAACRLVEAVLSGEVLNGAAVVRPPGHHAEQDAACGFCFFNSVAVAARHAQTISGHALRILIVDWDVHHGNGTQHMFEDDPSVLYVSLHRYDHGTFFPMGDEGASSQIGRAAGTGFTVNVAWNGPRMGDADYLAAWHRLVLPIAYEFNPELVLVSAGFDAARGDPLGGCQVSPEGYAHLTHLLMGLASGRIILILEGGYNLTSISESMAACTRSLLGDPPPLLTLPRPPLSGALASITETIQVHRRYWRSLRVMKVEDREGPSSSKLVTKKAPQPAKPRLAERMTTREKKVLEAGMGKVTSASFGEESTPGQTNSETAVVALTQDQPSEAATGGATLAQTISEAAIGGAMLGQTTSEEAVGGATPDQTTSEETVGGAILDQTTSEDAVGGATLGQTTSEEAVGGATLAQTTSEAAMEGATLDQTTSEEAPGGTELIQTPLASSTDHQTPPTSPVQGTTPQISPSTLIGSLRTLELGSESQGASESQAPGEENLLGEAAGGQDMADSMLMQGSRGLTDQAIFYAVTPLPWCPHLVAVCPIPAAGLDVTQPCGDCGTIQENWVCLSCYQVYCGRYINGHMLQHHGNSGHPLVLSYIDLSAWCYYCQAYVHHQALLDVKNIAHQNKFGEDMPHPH
# Experimental: (§4) Enzymatic assays were performed by Shanghai ChemPartner according to the HDAC kit protocol. […] Fluorescence was recorded at 355 nm excitation and 460 nm emission on a Synergy MX reader (PerkinElmer Life Sciences, Boston, MA, USA). IC50 values were derived from dose–response curves.
# HDAC1 = HDAC1 (Homo sapiens, UniProt Q13547); experiment: as above
# Chain of HDAC1 (Q13547 whole entry): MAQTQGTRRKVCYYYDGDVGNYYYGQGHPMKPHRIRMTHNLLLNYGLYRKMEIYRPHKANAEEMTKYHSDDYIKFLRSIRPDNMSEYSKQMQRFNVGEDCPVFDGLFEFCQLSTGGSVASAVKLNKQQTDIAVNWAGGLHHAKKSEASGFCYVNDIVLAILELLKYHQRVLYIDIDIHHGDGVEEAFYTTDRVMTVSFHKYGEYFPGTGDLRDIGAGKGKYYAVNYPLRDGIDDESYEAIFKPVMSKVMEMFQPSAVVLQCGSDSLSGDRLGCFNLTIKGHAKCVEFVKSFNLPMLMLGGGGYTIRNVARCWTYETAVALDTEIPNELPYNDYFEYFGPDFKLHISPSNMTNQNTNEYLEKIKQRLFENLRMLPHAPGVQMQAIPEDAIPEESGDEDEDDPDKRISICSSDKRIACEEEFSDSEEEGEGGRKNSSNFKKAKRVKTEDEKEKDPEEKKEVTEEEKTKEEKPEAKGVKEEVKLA
# Experimental: as §4
# [1] = tested on: Jurkat, human leukemic T cell line; experiment: Anti-proliferation MTT / CCK-8 assay; type: cell-based; settings: Homo sapiens, Jurkat, 72 h
# Experimental: These cells were purchased from the National Collection of Authenticated Cell Cultures (Shanghai, China).
# (§1) The concentration of the cell suspension was adjusted to the appropriate concentration with fresh medium (the number of cells was about 30–40% of the bottom area of the well plate). 150 μL (about 1 × 10^4 cells) of prepared cell suspension containing different concentrations of NBU-2 were added to a 96-microtiter plate, and 3 replicate wells were set up for each concentration. If the cells were adherent, the cells were first allowed to grow overnight in 96 microtiter plates until the cells were adherent, and then the old medium was replaced with the drug-containing medium. The plates were incubated in a 5% CO2 cell incubator at 37 °C for 72 h. Then, 15 μL of MTT solution was added to each well, 100 μL of 10% SDS solution (pH = 2) was added after 4 h, and the plate was incubated at 37 °C with 5% CO2 overnight to fully dissolve the crystals.
# (§2) The cells (about 1 × 10^4 cells) were treated with different concentrations of NBU-2 and DMSO control for different times (24 h, 48 h, 72 h), with 3 replicate wells for each concentration. Incubate at 37 °C in a 5% CO2 cell culture incubator. After a predetermined time, 10 μL of CCK-8 was added to each well and incubated for 2 h. The absorbance was measured at the excitation wavelength of 450 nm.
# [2] = tested on: U937, human histiocytic lymphoma; experiment: Anti-proliferation MTT / CCK-8 assay; type: cell-based; settings: U-937, read-out: IC50 proliferation U937, heading: IC50 proliferation U937, 72 h, mean ± SEM of three independent assays
# Excerpt: (§3) K562, human erythroleukemia line; HL-60, human leukemic cell line; Jurkat, human leukemic T cell line; CCRF-CEM, human leukemic lymphoblasts; U937, human histiocytic lymphoma; HCT-116, human colorectal cancer cell line; A549, human lung cancer cell line; Hep G2, human hepatoma cell lines; MDA-MB-231, MCF-7, human breast cancer cell line; 4T1, mouse breast cancer cell line; PC12, pheochromocytoma of the rat adrenal medulla; HUVEC, human umbilical vein endothelial cells. These cells were purchased from the National Collection of Authenticated Cell Cultures (Shanghai, China).
# as §1, with “crystals. Finally, the absorbance value of each well was measured at 570 and 655 nm.” for “crystals.”
# as §2
# [3] = tested on: 4T1, mouse breast cancer cell line; experiment: Anti-proliferation MTT / CCK-8 assay; type: cell-based; settings: 72 h
# Excerpt: as §3
# as §1, with “crystals. Finally, the absorbance value of each well was measured at 570 and 655 nm.” for “crystals.”
# as §2
# [4] = tested on: CCRF-CEM, human leukemic lymphoblasts; experiment: Anti-proliferation MTT / CCK-8 assay; type: cell-based; settings: read-out: IC50 proliferation CCRF-CEM, heading: IC50 proliferation CCRF-CEM, 72 h, mean ± SEM of three independent assays
# Excerpt: as §3
# as §1, with “crystals. Finally, the absorbance value of each well was measured at 570 and 655 nm.” for “crystals.”
# as §2
# [5] = tested on: PC12, pheochromocytoma of the rat adrenal medulla; experiment: Anti-proliferation MTT / CCK-8 assay; type: cell-based; settings: PC-12, 72 h
# Excerpt: as §3
# as §1, with “crystals. Finally, the absorbance value of each well was measured at 570 and 655 nm.” for “crystals.”
# as §2
# [6] = tested on: A549, human lung cancer cell line; experiment: Anti-proliferation MTT / CCK-8 assay; type: cell-based; settings: A549, read-out: IC50 proliferation A549, heading: IC50 proliferation A549, 72 h, mean ± SEM of three independent assays
# Excerpt: as §3
# as §1, with “crystals. Finally, the absorbance value of each well was measured at 570 and 655 nm.” for “crystals.”
# as §2
# [7] = tested on: Hep G2, human hepatoma cell lines; experiment: Anti-proliferation MTT / CCK-8 assay; type: cell-based; settings: HepG2, read-out: IC50 proliferation HepG2, heading: IC50 proliferation HepG2, 72 h, mean ± SEM of three independent assays
# Excerpt: as §3
# as §1, with “crystals. Finally, the absorbance value of each well was measured at 570 and 655 nm.” for “crystals.”
# as §2
# [8] = tested on: K562, human erythroleukemia line; experiment: Anti-proliferation MTT / CCK-8 assay; type: cell-based; settings: K562, read-out: IC50 proliferation K562, heading: IC50 proliferation K562, 72 h, mean ± SEM of three independent assays
# Excerpt: as §3
# as §1, with “crystals. Finally, the absorbance value of each well was measured at 570 and 655 nm.” for “crystals.”
# as §2
# [9] = tested on: HCT-116, human colorectal cancer cell line; experiment: Anti-proliferation MTT / CCK-8 assay; type: cell-based; settings: HCT-116, read-out: IC50 proliferation HCT-116, heading: IC50 proliferation HCT-116, 72 h, mean ± SEM of three independent assays
# Excerpt: as §3
# as §1, with “crystals. Finally, the absorbance value of each well was measured at 570 and 655 nm.” for “crystals.”
# as §2
# [10] = tested on: MDA-MB-231, human breast cancer cell line; experiment: Anti-proliferation MTT / CCK-8 assay; type: cell-based; settings: MDA-MB-231, read-out: IC50 proliferation MDA-MB-231, heading: IC50 proliferation MDA-MB-231, 72 h, mean ± SEM of three independent assays
# Excerpt: as §3
# as §1, with “crystals. Finally, the absorbance value of each well was measured at 570 and 655 nm.” for “crystals.”
# as §2
# [11] = tested on: HL-60, human leukemic cell line; experiment: Anti-proliferation MTT / CCK-8 assay; type: cell-based; settings: HL-60, read-out: IC50 proliferation HL-60, heading: IC50 proliferation HL-60, 72 h, mean ± SEM of three independent assays
# Excerpt: as §3
# as §1, with “crystals. Finally, the absorbance value of each well was measured at 570 and 655 nm.” for “crystals.”
# as §2
IC50 (HDAC6) [nM],IC50 (HDAC1) [nM],IC50 ([1]; read-out: IC50 against Jurkat cells) [nM],"IC50 ([1]; read-out: IC50 proliferation Jurkat, heading: IC50 proliferation Jurkat, mean ± SEM of three independent assays) [nM]",IC50 [2] [nM],IC50 [3] [nM],IC50 [4] [nM],IC50 [5] [nM],IC50 [6] [nM],IC50 [7] [nM],IC50 [8] [nM],IC50 [9] [nM],IC50 [10] [nM],IC50 [11] [nM],SMILES
114 ± 28,242 ± 15,–,–,–,–,–,–,–,–,–,–,–,–,"O=C(NO)c1ccc(CNc2ccnc3ccccc23)cc1 [NBU-1, N-hydroxy-4-((quinolin-4-ylamino)methyl)benzamide]"
–,–,2230,2230 ± 220,1310 ± 380,> 50,1660 ± 340,> 50,> 50000,500 ± 20,1650 ± 640,3860 ± 1090,9750 ± 1780,860 ± 70,"Nc1cc(F)ccc1NC(=O)c1ccc(CNC(=O)/C=C/c2cccnc2)cc1 [Chidamide, reference compound]"
